Literature values as cited in patent US7198928B2, “Human COX-1 alternatively spliced variants and methods of using same” (Allergan, Inc., priority 2003, dated 2007).

Legend:
COX-1 = settings: human iris vs human blood
[1] = humans treated with rofecoxib, in comparison with patients receiving naproxen

Row | SMILES | potency of COX-1 inhibition in human iris relative to human blood (COX-1) [fold] | thrombotic cardiovascular events [1]
1 | C[C@H](C(=O)O)c1ccc(-c2ccccc2)c(F)c1 [S(+)flurbiprofen] | 70 | –
2 | CS(=O)(=O)c1ccc(C2=C(c3ccccc3)C(=O)OC2)cc1 [rofecoxib] | – | significant increase in thrombotic cardiovascular events
